Experimental data published in US10828315B2 (Madrigal Pharmaceuticals, Inc., priority 2013, dated 2020).
Several values for one entry are separate records, joined by “and”; a condition that tells them apart may be missing. Equal values may be shown once. Read-outs that look alike come from different tables or passages of the source.

Assays:
[1] = system: H 3211 NSLC cells; experiment: IC50 of continuous and pulsed exposure (Examples 9 and 10); format: cell-based
[2] = Mouse plasma stability protocol, up to 1 h (Examples 16-18)
Method: (§2) 150 ng/mL solution of SDC-TRAP-0002 in methanol was prepared using the internal standard spiking solution. This solution was used to precipitate all plasma samples in the study. 200 μL was pipetted into a 96 deepwell plate over dry ice. 10 μL of 1 mM stock in DMSO was added to a 1.5 mL microfuge tube, then 990 μL of plasma. Samples were mixed by vortex, then 50 μL of each sample was added in triplicate to a 96-well plate containing internal standard solution. This was designated the 0 hour time point sample. 250 μL of the remaining plasma sample was added to each of four 96 deepwell plates—one per time point. Samples were incubated at 37° C. with gentle shaking for 0.25, 0.5, and 1 hour. After each time point, one plate of each sample was removed from the shaker and placed on wet ice for approximately 2 minutes. 50 μL at plasma aliquots (in triplicate) were added to the deepwell plate containing internal standard solution. After the last time point was extracted, the 96 deepwell plate was vortexed, then centrifuged at 2-8° C. 150 μL of supernatant was collected and 25 μL at of water was added. Samples were mixed and analyzed by LC-MS/MS.
(§3) 990 μL mouse plasma aliquots from a common stock were spiked with 10 μL of 1 mM stock of one of seven SDC-TRAP samples identified in the table below. Each sample was mixed and divided into 250 μL aliquots, each representing time points 0, 15 minutes, 30 minutes or 1 hour. At the prescribed time point, 3×50 μL samples were each mixed with 200 μL of methanol containing internal standard and held on dry ice until all time point samples were extracted. The samples collectively were vortex mixed for 1.5 minutes at 1500 rpm, then centrifuged at 4400 rpm for 10 minutes at 8° C.

[3] = Stability in mouse plasma, 2 h at 37° C. (Example 5); format: in vitro ADME; conditions: mouse plasma
Method: (§1) SDC-TRAP-0022 and SDC-TRAP-0028 were incubated in human and mouse plasma for 2 h at 37° C. and assayed for integrity at 0.25, 0.5, 1 and 2 h. The values reported below are the remaining of the parent compound at the end of the 2 h incubation period.

[4] = system: Human H3122 NSCLC cells; experiment: Cell viability assay (CellTiter-Glo) in H3122 cells (Example 4); format: cell-based; conditions: NCI-H3122
Method: Human H3122 NSCLC cells were obtained and grown in RPMI in the presence of fetal bovine serum (10%), 2 mM L-glutamine and antibiotics (100 IU/ml penicillin and 100 μg/ml streptomycin, Sigma Aldrich.) Cells were maintained at 37° C., 5% CO2 atmosphere.
Cell viability was measured using the CellTiter-Glo® assay (Promega). In brief, cells were plated in 96-well plates in triplicate at optimal seeding density (determined empirically) and incubated at 37° C., 5% CO2 atmosphere for 24 hr prior to the addition of drug or vehicle (0.3% DMSO) to the culture medium. At the end of the assay, CellTiter-Glo was added to the wells per manufacturer's recommendation, shaken for two minutes and incubated for 10 minutes at room temperature. Luminescence (0.1 sec) was measured with a Victor II microplate reader (Perkin Elmer) and the resulting data were used to calculate cell viability, normalized to vehicle control.
Cells as described above were treated with exemplary SDC-TRAPs and their viability determined as above as well. The following table illustrates the results.

[5] = system: HER2; experiment: HER2 degradation in BT-474 cells (Example 3, Methods 1 and 2); format: cell-based, human
Outline: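 BT-474 cells treated 24 h at 37 °C with 10-point 3-fold compound dilutions; HER2 read by in-cell immunofluorescence after paraformaldehyde fixation, signal normalized to DRAQ5 nuclear stain, EC50 from curve fit. Degradation also checked by western blot of cytosolic lysates against tubulin.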

[6] = Stability in human plasma, 2 h at 37° C. (Example 5); format: in vitro ADME; conditions: human plasma
Method: as §1

[7] = system: HER2; experiment: HER2 degradation assay with BT-474 cell line (Example 12, FACS); format: cell-based, human
[8] = system: Hsp90 client proteins (EGFR, MET, CDC2), Hsp70, DNA damage markers; experiment: Pharmacodynamics in SCLC xenograft tumors; format: in vivo
[9] = system: H2AX phosphorylation, HSP70, EGFR, MET; experiment: Pharmacodynamics in CRC (HCT-116) xenograft tumors; format: in vivo, mouse; conditions: for H2AX phosphorylation: 24 hr
[10] = Tissue distribution of ganetespib in mice bearing RERF human NSCLC xenografts; conditions: ganetespib 50 mg/kg IV
Excerpt: Tissue distribution of ganetespib in female CD-1 nu/nu mice bearing RERF human NSCLC xenografts

[11] = system: human urinary bladder cancer cell line SW780; experiment: Cytotoxicity assay (CellTiter-Glo, 72 h), SW780; format: cell-based; conditions: SW780, 72 hours, read-out: Cytotoxicity (IC50, nM) SW-780
Method: (§4) Cytotoxicity of SDC-TRAP molecules was determined in three cancer cell lines. […] 80 μL of CellTiter-Glo was added to each well, followed by room temperature incubation in the dark for 15 minutes. Cell was determined by luminescence. IC50 was calculated using XLfit™ software.

[12] = system: human urinary bladder cancer cell line RT-112; experiment: Cytotoxicity assay (CellTiter-Glo, 72 h), RT-112; format: cell-based; conditions: RT-112, 72 hours, read-out: Cytotoxicity (IC50, nM) RT-112
Method: as §4

[13] = system: human breast cancer cell line BT-474; experiment: Cytotoxicity assay (CellTiter-Glo, 72 h), BT-474; format: cell-based; conditions: BT-474, 72 hours, read-out: Cytotoxicity (IC50, nM) BT-474
Method: as §4

[14] = target: T1, Hsp90α (Homo sapiens, UniProt P07900); experiment: Hsp90α binding assay (fluorescence polarization, FITC-labeled geldanamycin; Example 11); conditions: read-out: EC50 (Hsp90 binding assay)
T1 construct: purchased BPS Bioscience 50294
Method: An Hsp90^α fluorescence assay kit from BPS Bioscience (Cat #50294) containing Hsp90 recombinant enzyme, FITC-labeled geldanamycin, assay buffer and a low binding 384-well plate was used to assay Hsp90^α binding. Dithiothreitol (DTT) (Cat # D0643) and bovine serum albumin (BSA) (Cat # A2153) were obtained from Sigma-Aldrich. Fluorescence polarization was measured using a PHERAstar microplate reader (BMG LABTECH GmbH, Orienberg, Germany.)
The compounds were diluted to 1 mM in DMSO and loaded into a compound dilution plate to make 3-fold dilutions yielding a total of 8 concentrations. […] 5 mL of Hsp90^□ binding solution was prepared having a final concentration of 7 ng/[…]binding^□, 5 nM FITC-labeled geldanamycin, 2 mM DTT and 0.1 mg/mL BSA. 49 μL of binding solution was added to each microplate well, incubated at room temperature for 1 hour, then read using the PHERAstar microplate reader. The high control sample contained no compound plus Hsp90^α; the low control sample contained no compound and no Hsp90^α. […] The IC50 was calculated using GraphPad Prism 4 software.

[15] = Artificial membrane permeability assay (PAMPA); conditions: same protocol, second table
Method: Pre-coated PAMPA plates were warmed to room temperature for at least 30 minutes prior to adding assay components.
Stock solutions were prepared with the SDC-TRAP molecules to be tested. In order to make a working solution, either 50 μL of 100 μM Stock in DMSO+950 μL of PBS or 50 μL of 200 μM stock was added to 96 deep well plate, resulting in a 5 μM final concentration or a 10 μM final concentration, respectively. 3000 μL of the working solution containing each compound to be tested was added to the appropriate well of a donor PAMPA plate. 200 μL of PBS was added into the corresponding wells of an acceptor PAMPA plates.
The acceptor plate was lowered onto the donor plate and allowed to incubate for five hours. After five hours, a 50 μL aliquot was removed from each well of each plate and added into a new 96 deep-well plate.
100 μL of methanol containing an internal standard was added to each aliquot and analyzed by LC/MS.
In order to calculate the permeability for each SDC-TRAP molecule and the control molecules, the following formula was used:

[16] = system: human SCLC tumor xenografts; experiment: Antitumor activity in human SCLC tumor xenografts; format: in vivo, mice; conditions: SCLC xenografts; day 46
[17] = mouse, plasma, 1 h, 10 µM
Method: as §2, §3

[18] = system: HCT-116 human colorectal xenografts; conditions: female, BALB/cA nude, mouse, in vivo, iv
Method: (§5) The cells were maintained in vitro as a monolayer culture in McCoy's 5a Medium. Fetal bovine serum was then be added to the medium. The final concentration of fetal bovine serum was 10%. Cells were cultured at 37° C. and 5% CO2. The tumor cells were routinely sub-cultured twice weekly by trypsin-EDTA treatment. Cells in an exponential growth phase were harvested and counted for tumor inoculation.
(§6) 100 18-22 g, 5-7 week old, female BALB/cA nude mice were inoculated with the HCT 116 cells (2.0×10^6, 1:1 with Matrigel) subcutaneously on the back of each animal (0.1 mL/mouse). When the average tumor volume reached about 150-250 mm^3, 60 of the inoculated mice was selected based on tumor growth and randomly grouped into 6 treatment groups (10 mice per group) according to the following table.
(§7) The administrations were made with 27-gauge IV needle.
(§8) During the treatment period, the implanted tumors were measured by caliper twice per week. The tumors were measured for the maximum width (X) and length (Y) and the tumor volumes (V) were calculated using the formula: V=(X^2Y)/2. The differences in the tumor volume between the control and treatment groups were analyzed for significance using the unpaired two-tailed Student's t-test. P<0.05 was considered to be statistically significant. The animal body weights were also weighed and recorded twice per week.

[19] = system: HCT-116 human colorectal xenografts; experiment: Mouse xenograft efficacy in HCT-116 colon cancer model; conditions: mouse, in vivo
Method: as §5, §6, §7, §8

[20] = system: SK-OV-3 xenografts; experiment: Antitumor activity in SK-OV-3 ovarian cancer xenografts; format: in vivo, female Balb/c nude mice; conditions: SDC-TRAP-0063 200 mg/kg group; irinotecan alone and with ganetespib
Method: This model is sensitive to HSP90 inhibition.
However, once the dosing is discontinued all but 200 mg/kg of SDC-TRAP-0063 dose group maintained tumor growth inhibition for a prolonged period of time.

[21] = SCLC xenograft tumors, 24 hrs after drug exposure

With `CCc1c2c(nc3ccc(OC(=O)N(C)CCn4ccc5cc(-n6c(O)nnc6-c6cc(C(C)C)c(O)cc6O)ccc54)cc13)-c1cc3c(c(=O)n1C2)COC(=O)C3(O)CC` (centres unmarked) [SDC-TRAP-0022, 4,11-diethyl-4-hydroxy-3,14-dioxo-3,4,12,14-tetrahydro-1H-pyrano[3′,4′:6,7]indolizino[1,2-b]quinolin-9-yl (2-(5-(3-(2,4-dihydroxy-5-isopropylphenyl)-5-hydroxy-4H-1,2,4-triazol-4-yl)-1H-indol-1-yl)ethyl)(methyl)carbamate] the IC50 ([1]; 1 h, read-out: IC50, 1h-pulse/71h-compound free, 7.5 × 10^3 cells/well, two replicate columns) was over 3000 nM, the IC50 ([1]; read-out: IC50, 1h-pulse/71h-compound free, 7.5 × 10^3 cells/well, two replicate columns) was over 3000 nM and the IC50 ([1]; read-out: IC50, 72h-continuous, 7.5 × 10^3 cells/well, three replicate columns) was 193 nM and 823 nM and 460 nM. For the same molecule, the “% Remaining (1 h)” value ([2]; % Remaining of parent after 1 h incubation in mouse plasma at 37° C. (10 μM)) was 21.0%, the “% Remaining (1 h, 37° C.)” value ([2]; mouse plasma, 1 h, 37° C.) was 21% and the “% Remaining 2 h (37° C.), MO” value ([3]; 1 μM) was 32%. For the same molecule, the “% Remaining 2 h (37° C.), MO” value ([3]; 10 μM) was 31%, the IC50 [4] was 492 nM and the IC50 [5] was over 5 µM. For the same molecule, the “% Remaining 2 h (37° C.), HU” value ([6]; 1 μM) was 29%, the “% Remaining 2 h (37° C.), HU” value ([6]; 10 μM) was 30% and the IC50 [7] was over 5 µM.
In the case of `CC(C)c1cc(-c2n[nH]c(=O)n2-c2ccc3c(ccn3C)c2)c(O)cc1O` [ganetespib, reference compound], the “Hsp90 client proteins (EGFR, MET, CDC2) and Hsp70 expression” value [8, 21] is reported as “Hsp90 clients EGFR, MET and CDC2 are diminished”, the “markers for DNA damage (acetyl-histone H3, p53, p-H2AX)” value [8, 21] is reported as “increases p-H2AX but has negligible effects on p53 and histone H3” and the H2AX phosphorylation ([9]; HCT-116 tumors) is reported as “induces H2AX phosphorylation”. The “HSP70 and Hsp90 client protein (EGFR, MET) expression” value ([9]; HCT-116 tumors, 24 hr exposure) was “induces HSP70 expression and reduces the level of EGFR and MET compared to vehicle”, the plasma concentration ([10]; DRD, 24 hr) was “<LLOQ” and the “mean concentration in plasma relative to RBC” value ([10]; 5 min) was “about 10 times”. The “persistence in tumor versus plasma and other tissues” value ([10]; up to 24 hr) was “persist longer in tumor than in plasma or any other tissues studied”.
Molecule `CCNC(=O)c1nnc(-c2cc(C(C)C)c(O)cc2O)n1-c1ccc(Oc2ccc(C(=O)N[C@H]3C[C@H](O[C@H]4C[C@](O)(C(=O)CO)Cc5c(O)c6c(c(O)c54)C(=O)c4c(OC)cccc4C6=O)O[C@@H](C)[C@H]3O)cc2)cc1` [SDC-TRAP-0199, 5-(2,4-dihydroxy-5-isopropylphenyl)-N-ethyl-4-(4-(4-(((2S,3 S,4S,6R)-3-hydroxy-2-methyl-6-(((1S,3S)-3,5,12-trihydroxy-3-(2-hydroxyacetyl)-10-methoxy-6,11-dioxo-1,2,3,4,6,11-hexahydrotetracen-1-yl)oxy)tetrahydro-2H-pyran-4-yl)carbamoyl)phenoxy)phenyl)-4H-1,2,4-triazole-3-carboxamide] has an IC50 [11] of 2300 nM, an IC50 [12] of 29 nM and an IC50 [13] of 29 nM. It also gave an EC50 [14] of 136 nM and an IC50 ([7]; BT-474 cells, overnight) of over 10 µM.
For `CCNC(=O)c1nnc(-c2cc(C(C)C)c(O)cc2O)n1-c1ccc(OC2CCN(c3cnc(C(=O)N[C@H]4C[C@H](O[C@H]5C[C@](O)(C(=O)CO)Cc6c(O)c7c(c(O)c65)C(=O)c5c(OC)cccc5C7=O)O[C@@H](C)[C@H]4O)cn3)CC2)cc1` [SDC-TRAP-0200, 5-(4-(4-(3-(2,4-dihydroxy-5-isopropylphenyl)-5-(ethylcarbamoyl)-4H-1,2,4-triazol-4-yl)phenoxy)piperidin-1-yl)-N-((2S,3S,4S,6R)-3-hydroxy-2-methyl-6-(((1S,3S)-3,5,12-trihydroxy-3-(2-hydroxyacetyl)-10-methoxy-6,11-dioxo-1,2,3,4,6,11-hexahydrotetracen-1-yl)oxy)tetrahydro-2H-pyran-4-yl)pyrazine-2-carboxamide], the “Mass Retention” value [15] was 10.6%, the IC50 [11] was 651 nM and the IC50 [12] was 16 nM. For the same molecule, the IC50 [13] was 32 nM, the EC50 [14] was 253 nM and the IC50 ([7]; BT-474 cells, overnight) was over 10 µM.
In the case of `CCc1c2c(nc3ccc(OC(=O)N4CCC(N5CCCCC5)CC4)cc13)-c1cc3c(c(=O)n1C2)COC(=O)[C@]3(O)CC` [irinotecan, reference compound], the “kinetics of acetyl-histone H3 induction” value ([8]; SCLC xenograft tumors, 24, 72 and 96 hrs) is reported as “maximal induction of acetyl-histone H3 by 24 hr”, the mice found dead [16] is reported as 1/8 and the “% Remaining (1 h)” value [17] is reported as 32.5%. For the same molecule, the “animal death during the treatment” value [18] was 20-30%, the “antitumor activity in HCT-116 xenografts (FIG. 23)” value [19] was “significantly inhibited the growth of HCT-116 human colorectal xenografts” and the H2AX phosphorylation ([9]; HCT-116 tumors) was “stimulate H2AX phosphorylation at 24 hr”. The “kinetics of H2AX phosphorylation” value ([9]; HCT-116 xenograft tumors) was “maximally induced at 4 hr and stable at 24 hr” and the “antitumor activity in SK-OV-3 xenografts (FIG. 25)” value [20] was “statistically significant inhibitory impact on the growth of SK-OV-3 xenografts”.
